Data on 18 compounds can be found in ChEMBL document CHEMBL3045037, “Insecticidal and Neuroblocking Activities of Acetamiprid and Related Compounds” (J Pestic Sci, 2003).

As usually defined, the logP is the decadic logarithm of the partition coefficient of the neutral form, usually between octanol and water.

SMILES strings stand for the structures.

For data set [1], the system named is Abdominal central nerve cord. Nature of the data set: Neuroblocking activity in adult male Periplaneta americana (American cockroach) abdominal central nerve cords assessed as neuroblocking concentration measured at 22 to 25 degC. The class given is functional.
The subject of data set [2] is Periplaneta americana. In words: Insecticidal activity against adult male Periplaneta americana (American cockroach) dosed through injection into abdomen assessed as mortality measured 24 hr post dose in presence of 50 ug metabolic inhibitor PB and 50 ug NIA. The class given is functional.
Data set [3] is described as follows: Lipophilicity, log P of the compound by HPLC based shake flask method. The class given is physicochemical.
Data set [4] concerns Periplaneta americana. In words: Insecticidal activity against adult male Periplaneta americana (American cockroach) dosed through injection into abdomen assessed as mortality measured 24 hr post dose. The class given is functional.
Data set [5] deals with Periplaneta americana. In words: Insecticidal activity against adult male Periplaneta americana (American cockroach) dosed through injection into abdomen assessed as mortality measured 24 hr post dose in presence of 50 ug metabolic inhibitor PB. Format: functional.

Take `C=CCN(Cc1ccc(Cl)nc1)/C(C)=N/C#N`: in data set [1], the “log(1/BC)” value is reported as 5.46. In addition, the “log(1/MLD)” value in the data set on Periplaneta americana [2] is 8.07; in the data set on Periplaneta americana [4], 7.07. Moreover, in data set [3], the logP was 1.56.

On to `CCCN(Cc1ccc(Cl)nc1)/C(C)=N/C#N`, for which the “log(1/BC)” value in data set [1] was found to be 5.14. The results for the “log(1/MLD)” value with Periplaneta americana [2], in the data set on Periplaneta americana [4] and in the data set on Periplaneta americana [5] were 8.34, 7.04 and 7.44, respectively. Besides, the lipophilicity (logP) in data set [3] came to 1.62.

Take `C/C(=N\C#N)N(Cc1ccccc1)Cc1ccc(Cl)nc1`: in data set [1], the “log(1/BC)” value is 4.46. The “log(1/MLD)” value in the data set with Periplaneta americana [2] is given as 7.6; in the data set on Periplaneta americana [4], 6.7. In data set [3], this compound had a logP of 2.11.

Regarding `CCCCC/C(=N\C#N)N(C)Cc1ccc(Cl)nc1`, the “log(1/BC)” value in data set [1] is on record as less than 3.2. The “log(1/MLD)” value was 6.8 with Periplaneta americana [2], less than 6.2 with Periplaneta americana [4] and 6.2 in the data set on Periplaneta americana [5]. Moreover, the logP in data set [3] came out at 2.3.

On to `CCCCCN(Cc1ccc(Cl)nc1)/C(C)=N/C#N`, for which, in data set [1], the “log(1/BC)” value stood at 5.01. Moreover, the entries for the “log(1/MLD)” value in the data set on Periplaneta americana [2] and in the data set with Periplaneta americana [4] were 7.8 and less than 6.9, respectively. For the same compound, the logP in data set [3] worked out at 2.37.

Take `CN(Cc1ccc(Cl)nc1)/C(=N/C#N)c1ccccc1`: the “log(1/BC)” value in data set [1] was less than 3.39. Also, the entries for the “log(1/MLD)” value with Periplaneta americana [2], in the data set on Periplaneta americana [4] and in the data set with Periplaneta americana [5] were 6.99, less than 6.39 and 6.48, respectively. In addition, in data set [3], the lipophilicity (logP) is 1.86.

Regarding `C/C(=N\C#N)N(C)Cc1ccc(Cl)nc1` [ACETAMIPRID], in data set [1], the “log(1/BC)” value came to 6.19. The “log(1/MLD)” value was 9.68 in the data set on Periplaneta americana [2], 8.28 in the data set on Periplaneta americana [4] and 8.58 in the data set with Periplaneta americana [5]. The compound also had a logP in data set [3] of 0.83.

`O=[N+]([O-])/N=C1\NCCN1Cc1ccc(Cl)nc1` [IMIDACLOPRID]: the “log(1/BC)” value in data set [1] is 5.64. Moreover, the results for the “log(1/MLD)” value in the data set with Periplaneta americana [2], with Periplaneta americana [4] and in the data set with Periplaneta americana [5] were 10.15, 8.96 and 9.26, respectively. For the same compound, in data set [3], the lipophilicity (logP) worked out at 0.6.

As for `CC/C(=N\C#N)N(C)Cc1ccc(Cl)nc1`, in data set [1], the “log(1/BC)” value amounted to 5.23. The “log(1/MLD)” value in the data set with Periplaneta americana [2] is listed as 8.54; with Periplaneta americana [4] it was 7.24; in the data set on Periplaneta americana [5] it was 7.64. For the same compound, the logP in data set [3] worked out at 1.12.

With `CCN(Cc1ccc(Cl)nc1)/C(C)=N/C#N`, in data set [1], the “log(1/BC)” value came to 5.87. For the same compound, the “log(1/MLD)” value in the data set with Periplaneta americana [2] is on record as 9.24; in the data set with Periplaneta americana [4], 7.14; in the data set with Periplaneta americana [5] it was 7.63. This compound also returned a log partition coefficient (logP) in data set [3] of 1.19.

`C/C(=N\C#N)NCc1ccc(Cl)nc1`: the “log(1/BC)” value in data set [1] is reported as 3.7. Moreover, the “log(1/MLD)” value with Periplaneta americana [2] was determined as 7.5; in the data set with Periplaneta americana [4], 6.4; in the data set with Periplaneta americana [5], 6.7. For the same compound, the logP in data set [3] stood at 1.07.

As for `CCCCN(Cc1ccc(Cl)nc1)/C(C)=N/C#N`, the “log(1/BC)” value in data set [1] is 4.48. Further, the entries for the “log(1/MLD)” value in the data set with Periplaneta americana [2] and in the data set on Periplaneta americana [4] were 7.71 and less than 7.01, respectively. The same compound came in with a log partition coefficient (logP) in data set [3] of 2.13.

For `CCCC/C(=N\C#N)N(C)Cc1ccc(Cl)nc1`, in data set [1], the “log(1/BC)” value is listed as less than 3.37. For the same compound, the “log(1/MLD)” value is 6.77 in the data set on Periplaneta americana [2], less than 6.37 in the data set on Periplaneta americana [4] and less than 6.37 with Periplaneta americana [5]. Also, the lipophilicity (logP) in data set [3] came out at 1.87.

Consider `CN(Cc1ccc(Cl)nc1)/C(Cc1ccccc1)=N/C#N`, for which the “log(1/BC)” value in data set [1] is less than 3.58. Besides, the “log(1/MLD)” value in the data set with Periplaneta americana [2] is recorded as 6.78; in the data set with Periplaneta americana [4], less than 6.58; in the data set with Periplaneta americana [5], less than 6.58. The logP in data set [3] came to 2.13.

`CC(C)/C(=N\C#N)N(C)Cc1ccc(Cl)nc1`: the “log(1/BC)” value in data set [1] was determined as 3.44. In addition, the “log(1/MLD)” value is recorded as 7.44 with Periplaneta americana [2], 6.44 in the data set on Periplaneta americana [4] and 6.74 in the data set on Periplaneta americana [5]. In data set [3], this compound returned a lipophilicity (logP) of 1.39.

With `CCC/C(=N\C#N)N(C)Cc1ccc(Cl)nc1`, in data set [1], the “log(1/BC)” value turned out to be 3.78. In addition, the “log(1/MLD)” value in the data set with Periplaneta americana [2] is 7.77; in the data set on Periplaneta americana [4], less than 6.58; in the data set on Periplaneta americana [5] it was 6.68. In addition, the logP in data set [3] was 1.55.

Consider `C/C(=N\C#N)N(Cc1ccc(Cl)nc1)C(C)C`, for which, in data set [1], the “log(1/BC)” value is given as 4.47. The “log(1/MLD)” value in the data set on Periplaneta americana [2] was determined as 7.67; in the data set on Periplaneta americana [4], 6.78. This compound showed a lipophilicity (logP) in data set [3] of 1.46.

`CC(C)C/C(=N\C#N)N(C)Cc1ccc(Cl)nc1`: the “log(1/BC)” value in data set [1] is given as less than 3.3. The “log(1/MLD)” value in the data set with Periplaneta americana [2] was 6.9; with Periplaneta americana [4] it was less than 6.3; in the data set on Periplaneta americana [5] it was less than 6.3. This compound returned a log partition coefficient (logP) in data set [3] of 1.75.
